Drawing on patent US20080021056A1, “Fused, Tricyclic Sulfonamide Inhibitors of Gamma Secretase” (priority 2006, published 2008), this text covers IC50 for 31 molecules.

As a reminder, the pIC50 is −log10 of the IC50, conventionally taken in molar units. Low values mean a high IC50, high ones a low IC50.

Molecules are shown by their SMILES. pIC50: −log10 of the molar value. “And” between values parts separate entries of the source, which are not always exact repeats. Identical values can stand only once.

One assay has as its target T1, gamma-secretase (Homo sapiens, UniProt P49768).
T1 construct: partially purified extract of IMR-32 cell membranes as the gamma-secretase enzyme preparation; endogenous in cells; host or cells: IMR-32 cell membranes (partially purified extract)
Kind of assay: Gamma-secretase APP enzyme assay. To be noted: cleavage of MBP-C125 Swe substrate at the Aβ40 site; partially purified extract of IMR-32 cell membranes; ELISA. The assay is classed as biochemical. The source says: The gamma-secretase APP enzyme assay was designed to measure the specific proteolytic cleavage of an APP substrate (MBP-C125 Swe fusion protein) at the Aβ40 site. The assay used a partially purified extract of IMR-32 cell membranes as the gamma-secretase enzyme preparation and a recombinant fusion protein containing the C-terminal 125 amino acids of the Swedish variant of the APP (MBP-C125swe) as the substrate. This assay involved two steps beginning with the enzymatic reaction generating a cleavage product that was captured with an immobilized antibody specific for the neo-epitope Aβ40 site. The captured cleavage product was then detected in a sandwich ELISA assay with a biotinylated reporter antibody that is specific to Aβ (17-28). Streptavidin-linked alkaline phosphatase was then added that would generate a fluorescent signal proportional to the amount of cleavage product. This assay was used to discover small molecule inhibitors of gamma-secretase.
Briefly, a 149 mg/ml solution of BIGCHAP detergent was made with water at 42° C. and then rotated for 30 minutes at the same temperatures This warmed solution of BigCHAPS (N,N-Bis(3-D-gluconamidopropyl)cholamide) detergent was used to dissolve Brain Extract Type-V (lipid containing a minimum of 40% phosphatidylethanolamine) from Signa (St. Louis, Mo.) to a concentration of 8 mg/ml. This solution containing BigCHAPS and lipid at 8 mg/ml is then diluted to 0.53 mg/ml lipid with a pre-warmed solution of Hepes and sodium chloride. This final solution containing Hepes buffer, sodium chloride, BigCHAPS detergent and lipid is used to create working solutions of both gamma-secretase (25 Units) and the MBP-C125 substrate (0.05 mg/ml).
Gamma-secretase was then added to a 96-well micro-titre plate and then incubated with various concentrations of inhibitor for 30 minutes at 37° C. MBPC125 substrate was then added to initiate the reaction that would run for two hours at 37° C. The reaction was quenched with the addition of SDS to a final concentration of 0.1% and then 100 μl of the reaction mixture was transferred to a capture ELISA plate and incubated overnight at 4° C. Detection of the cleavage product was performed using a standard sandwich ELISA assay and quantified using a six point standard curve.
(An ELISA detects its analyte on a solid surface through an enzyme-linked reagent.)
For `O=S(=O)(c1ccc(C(F)(F)F)cc1)N1c2c[n+]([O-])ccc2-c2n[nH]cc2C1C1CC1` (centres unmarked) [4-cyclopropyl-5-(4-(trifluoromethylphenylsulfonyl)-4,5-dihydro-2H-pyrazolo[4,3-c][1,7]naphthyridine 7-oxide], the pIC50 was 7.00 to 10.00.

As for `CC1c2cn[nH]c2-c2cc(F)ccc2N1S(=O)(=O)c1ccc(F)cc1` (centres unmarked) [8-fluoro-5-(4-fluorophenylsulfonyl)-4-methyl-4,5-dihydro-1H-pyrazolo[4,3-c]quinoline], the pIC50 is 7.00 to 10.00.

As to `CC1c2cn[nH]c2-c2cc(F)ccc2N1S(=O)(=O)c1cccnc1` (racemic) [8-fluoro-4-methyl-5-(pyridin-3-ylsulfonyl)-4,5-dihydro-1H-pyrazolo[4,3-c]quinoline], the pIC50 was 6.30 to 7.00.

Molecule `O=S(=O)(c1ccc(OC(F)(F)F)cc1)N1c2cc(OC(F)(F)F)ccc2-c2n[nH]cc2[C@H]1C1CC1` [(R)-4-cyclopropyl-7-(trifluoromethoxy)-5-(4-(trifluoromethoxy)phenylsulfonyl)-4,5-dihydro-2H-pyrazolo[4,3-c]quinoline] gave a negative logarithm of the IC50 (pIC50) of 7.00 to 10.00.

`O=S(=O)(c1ccc(C(F)(F)F)cc1)N1c2nccn2-c2[nH]ncc2C1C1CC1` (centres unmarked) [4-cyclopropyl-5-(4-(trifluoromethyl)phenylsulfonyl)-4,5-dihydro-1H-imidazo[1,2-a]pyrazolo[4,3-e]pyrimidine]: the pIC50 was 6.00 to 6.30.

On to `CC1c2c[nH]nc2-c2cc(Cl)sc2N1S(=O)(=O)c1ccc(C(F)(F)F)cc1` (centres unmarked) [7-chloro-4-methyl-5-(4-(trifluoromethyl)phenylsulfonyl)-4,5-dihydro-1H-pyrazolo[3,4-d]thieno[2,3-b]pyridine], for which the negative logarithm of the IC50 (pIC50) was 7.00 to 10.00.

`O=[N+]([O-])c1ccc(S(=O)(=O)N2c3cc(F)c(F)cc3-c3[nH]ncc3[C@H]2C2CC2)cc1` [(R)-4-cyclopropyl-7,8-difluoro-5-(4-nitrophenylsulfonyl)-4,5-dihydro-1H-pyrazolo[4,3-c]quinoline] showed a pIC50 of 7.00 to 10.00.

Take `CCC1N(S(=O)(=O)c2ccc(Cl)cc2)c2ccccc2-c2ccnn21` (centres unmarked) [6-(4-chlorophenylsulfonyl)-5-ethyl-5,6-dihydropyrazolo[1,5-c]quinazoline]: the pIC50 is 6.30 to 7.00.

In turn, `COc1ccc(S(=O)(=O)N2c3ccc(F)cc3-c3[nH]ncc3[C@H]2C2CC2)cc1` [(R)-4-cyclopropyl-8-fluoro-5-(4-methoxyphenylsulfonyl)-4,5-dihydro-1H-pyrazolo[4,3-c]quinoline] showed a negative logarithm of the IC50 (pIC50) of 7.00 to 10.00.

As for `O=S(=O)(c1ccc(Cl)cc1)N1Cc2c(O)n[nH]c2-c2ccccc21` [5-[(4-chlorophenyl)sulfonyl]-4,5-dihydro-1H-pyrazolo{4,3-c]quinolin-3-ol], the negative logarithm of the IC50 (pIC50) is 5.00 to 6.00.

In turn, `O=S(=O)(c1ccc(C(F)(F)F)cc1)N1c2cccnc2-c2n[nH]cc2C1C1CC1` (centres unmarked) [4-cyclopropyl-5-(4-(trifluoromethyl)phenylsulfonyl)-4,5-dihydro-2H-pyrazolo[4,3-c][1,5]naphthyridine] had a negative logarithm of the IC50 (pIC50) of 7.00 to 10.00.

Regarding `O=S(=O)(c1ccc(Cl)cc1)N1c2nccn2-c2[nH]ncc2C1C1CC1` (centres unmarked) [5-(4-chlorophenylsulfonyl)-4-cyclopropyl-4,5-dihydro-1H-imidazo[1,2-a]pyrazolo[4,3-e]pyrimidine], the negative-log IC50 (pIC50) was 6.30 to 7.00.

`O=c1c2cn[nH]c2c2cc(F)ccc2n1S(=O)(=O)c1ccc(Cl)cc1` [5-(4-chlorophenylsulfonyl)-8-fluoro-1H-pyrazolo[4,3-c]quinolin-4(5H)-one] gave a negative logarithm of the IC50 (pIC50) of 5.00 to 6.00.

The molecule `O=S(=O)(c1ccc(Cl)cn1)N1c2ccc(F)cc2-c2n[nH]cc2C1C1CC1` (centres unmarked) [5-(5-chloropyridin-2-ylsulfonyl)-4-cyclopropyl-8-fluoro-4,5-dihydro-1H-pyrazolo[4,3-c]quinoline] gave a negative-log IC50 (pIC50) of 7.00 to 10.00.

Take `CC1c2c[nH]nc2-c2ccc(F)cc2N1S(=O)(=O)c1ccc(Cl)cc1` (centres unmarked) [5-(4-chlorophenylsulfonyl)-7-fluoro-4-methyl-4,5-dihydro-2H-pyrazolo[4,3-c]quinoline]: the pIC50 was 7.00 to 10.00.

In turn, `CC1c2cn[nH]c2-c2cc(F)ccc2N1S(=O)(=O)c1ccc(-c2ccccn2)s1` (centres unmarked) [8-fluoro-4-methyl-5-(5-(pyridin-2-yl)thiophen-2-ylsulfonyl)-4,5-dihydro-1H-pyrazolo[4,3-c]quinoline] showed a pIC50 of 5.00 to 6.00.

In turn, `CC(C)C1c2c[nH]nc2-c2ccccc2N1S(=O)(=O)c1ccc(Cl)cc1` (centres unmarked) [5-(4-chlorophenylsulfonyl)-4-isopropyl-4,5-dihydro-2H-pyrazolo[4,3-c]quinoline] gave a pIC50 of 7.00 to 10.00.

On to `COc1cccc2c1-c1[nH]ncc1C(C)N2S(=O)(=O)c1ccc(Cl)cc1` (centres unmarked) [5-[(4-chlorophenyl)sulfonyl]-9-methoxy-4-methyl-4,5-dihydro-1H-pyrazolo[4,3-c]quinoline], for which the pIC50 was 5.00 to 6.00.

`O=S(=O)(c1ccc(OC(F)F)cc1)N1c2ccc(F)cc2-c2n[nH]cc2C1C1CC1` (centres unmarked) [4-cyclopropyl-5-(4-(difluoromethoxy)phenylsulfonyl)-8-fluoro-4,5-dihydro-1H-pyrazolo[4,3-c]quinoline] had a negative logarithm of the IC50 (pIC50) of 7.00 to 10.00.

As to `O=S(=O)(c1ccc(C(F)(F)F)cc1)N1c2cc(F)c(F)cc2-c2[nH]ncc2C1c1cccnc1` (centres unmarked) [7,8-difluoro-4-(pyridin-3-yl)-5-(4-(trifluoromethyl)phenylsulfonyl)-4,5-dihydro-1H-pyrazolo[4,3-c]quinoline], the pIC50 is 7.00 to 10.00.

Molecule `O=S(=O)(c1ccc(Cl)s1)N1c2cc(F)c(F)cc2-c2n[nH]cc2C1C1CC1` (centres unmarked) [5-(5-chlorothiophen-2-ylsulfonyl)-4-cyclopropyl-7,8-difluoro-4,5-dihydro-2H-pyrazolo[4,3-c]quinoline] showed a pIC50 of 7.00 to 10.00.

On to `O=S(=O)(c1ccc(F)cc1)N1c2ncccc2-c2n[nH]cc2C1C1CC1` (centres unmarked) [4-cyclopropyl-5-(4-fluorophenylsulfonyl)-4,5-dihydro-2H-pyrazolo[4,3-c][1,8]naphthyridine], for which the pIC50 is 7.00 to 10.00.

`CC1c2cn[nH]c2-c2cc(F)ccc2N1S(=O)(=O)c1ccccn1` (centres unmarked) [8-fluoro-4-methyl-5-(pyridin-2-ylsulfonyl)-4,5-dihydro-1H-pyrazolo[4,3-c]quinoline]: the pIC50 was 6.30 to 7.00 and 7.00 to 10.00.

`CC1c2cn[nH]c2C2CCCCC2N1S(=O)(=O)c1ccc(Cl)cc1` (racemic) [5-(4-chlorophenylsulfonyl)-4-methyl-4,5,5a,6,7,8,9,9a-octahydro-1H-pyrazolo[4,3-c]quinoline]: the negative logarithm of the IC50 (pIC50) is 7.00 to 10.00.

Molecule `O=S(=O)(c1ccc(Cl)cc1)N1c2ccccc2-c2n[nH]cc2C1C(F)(F)F` (centres unmarked) [5-(4-chlorophenylsulfonyl)-4-(trifluoromethyl)-4,5-dihydro-2H-pyrazolo[4,3-c]quinoline] gave a pIC50 of 7.00 to 10.00.

`CC[C@@H]1c2cn[nH]c2-c2cc(F)c(F)cc2N1S(=O)(=O)c1ccc(C(F)(F)F)cc1` [(R)-4-ethyl-7,8-difluoro-5-(4-(trifluoromethyl)phenylsulfonyl)-4,5-dihydro-1H-pyrazolo[4,3-c]quinoline] had a negative-log IC50 (pIC50) of 7.00 to 10.00.

`O=S(=O)(c1ccc(C(F)(F)F)cc1)N1c2ncccc2-c2n[nH]cc2C1C1CC1` (centres unmarked) [4-cyclopropyl-5-(4-(trifluoromethyl)phenylsulfonyl)-4,5-dihydro-2H-pyrazolo[4,3-c][1,8]naphythyridine] had a negative-log IC50 (pIC50) of 7.00 to 10.00.

The assay is the same for the next values; noted with them: cleavage of MBP-C125 Swe substrate at the Aβ40 site; partially purified extract of IMR-32 cell membranes; ELISA; enantiomer A.
Molecule `CC1c2cn[nH]c2-c2ccc(O)cc2N1S(=O)(=O)c1ccc(Cl)cc1` (single isomer, unassigned) [5-(4-chlorophenylsulfonyl)-4-methyl-4,5-dihydro-1H-pyrazolo[4,3-c]quinolin-7-ol] had a negative-log IC50 (pIC50) of 7.00 to 10.00.

The molecule `CC1c2cn[nH]c2-c2cc(O)c(O)cc2N1S(=O)(=O)c1ccc(Cl)cc1` (single isomer, unassigned) [5-(4-chlorophenylsulfonyl)-4-methyl-4,5-dihydro-1H-pyrazolo[4,3-c]quinoline-7,8-diol] showed a negative logarithm of the IC50 (pIC50) of 7.00 to 10.00.

As for `CC1c2cn[nH]c2C2CCCCC2N1S(=O)(=O)c1ccc(Cl)cc1` (single isomer, unassigned) [5-(4-chlorophenylsulfonyl)-4-methyl-4,5,5a,6,7,8,9,9a-octahydro-1H-pyrazolo[4,3-c]quinoline], the negative logarithm of the IC50 (pIC50) is 6.30 to 7.00.

As to `CC1c2cnc(N)nc2-c2cc(F)ccc2N1S(=O)(=O)c1ccc(F)cc1` (single isomer, unassigned) [9-fluoro-6-(4-fluorophenylsulfonyl)-5-methyl-5,6-dihydropyrimido[5,4-c]quinolin-2-amine], the pIC50 is 5.00 to 6.00.

Staying with this assay, now noted: cleavage of MBP-C125 Swe substrate at the Aβ40 site; partially purified extract of IMR-32 cell membranes; ELISA; enantiomer B.
With `CC1c2cn[nH]c2-c2ccc(O)cc2N1S(=O)(=O)c1ccc(Cl)cc1` (single isomer, unassigned) [5-(4-chlorophenylsulfonyl)-4-methyl-4,5-dihydro-1H-pyrazolo[4,3-c]quinolin-7-ol], the pIC50 is 7.00 to 10.00.

As to `CC1c2cn[nH]c2-c2cc(O)c(O)cc2N1S(=O)(=O)c1ccc(Cl)cc1` (single isomer, unassigned) [5-(4-chlorophenylsulfonyl)-4-methyl-4,5-dihydro-1H-pyrazolo[4,3-c]quinoline-7,8-diol], the pIC50 was 6.30 to 7.00.

In turn, `CC1c2cn[nH]c2C2CCCCC2N1S(=O)(=O)c1ccc(Cl)cc1` (single isomer, unassigned) [5-(4-chlorophenylsulfonyl)-4-methyl-4,5,5a,6,7,8,9,9a-octahydro-1H-pyrazolo[4,3-c]quinoline] showed a pIC50 of 7.00 to 10.00.

For the molecule `CC1c2cnc(N)nc2-c2cc(F)ccc2N1S(=O)(=O)c1ccc(F)cc1` (single isomer, unassigned) [9-fluoro-6-(4-fluorophenylsulfonyl)-5-methyl-5,6-dihydropyrimido[5,4-c]quinolin-2-amine], the pIC50 was 6.30 to 7.00.
